Experimental data: paper PMC9317316, “Synthesis and Evaluation of Some New 4H-Pyran Derivatives as Antioxidant, Antibacterial and Anti-HCT-116 Cells of CRC, with Molecular Docking, Antiproliferative, Apoptotic and ADME Investigations” (Pharmaceuticals, 2022)
pIC50: −log10 of the molar value.

Key:
[1] = test system: CDK2 gene in HCT-116 cells; test: qRT-PCR expression profile of the CDK2 gene in HCT-116 cells; format: cell-based, human; conditions: 24 h, relative to untreated cells (given as decreased x-fold)
Protocol: Second, the expression profiles of the CDK2 gene in HCT-116 cells treated with compounds 4d and 4k were determined. The results were compared with the positive control (cells treated with the well-known cytotoxic drug 5-fluorouracil) and the negative control (untreated cells).
Primers specific for the cyclin-dependent kinase-2 (CDK2) and caspase-3 genes were designed using primer blast (https://www.ncbi.nlm.nih.gov/tools/primer-blast/, accessed on 31 October 2021) or primer3 (https://primer3.ut.ee/, accessed on 31 October 2021) software. The selected genes covered the two main groups of the cyclin-dependent kinase-2 (CDK2) gene and the caspase-3 gene. Primers were used in RT-qPCR analysis to amplify fragments of 100–200 bp in length (Table 7).
Total RNA was extracted from each cell culture flask using the RNeasy extraction kit (RNeasy micro kit, cat. no. 74004). Up to 1 × 10^6 cells, depending on the cell line, were disrupted in buffer RLT and homogenized and disrupted. Ethanol was then added to the lysate, creating conditions that promote the selective binding of RNA to the RNeasy membrane. […] The amount of extracted RNA was quantified by estimating the absorbance at 260 nm. The purity of the RNA was checked by measuring the ratio of the absorbance at 260 and 280 nm, where a ratio ranging from 1.8 to 2.0 was taken to be pure. […]
(§1) Quantitative real-time PCR was carried out with the Thermal Cycler Rotorgene Real-Time System II (Rotorgene, South Korea) with the SYBR kit. […]
The relative expression levels through the average cycle threshold (CT) were successfully detected. Average CT values were calculated from the triplicate experiment conducted for each gene; the CT value was detected by subtracting the average CT value of genes from the CT value of actin and GAPDH genes. The relative expression levels of the target genes were calculated using the ΔΔ Ct method and the reference genes GAPDH for the cancer cell line. Finally, a fold change equation […] was used to estimate relative expression levels, while the standard deviation was calculated from the replicated experimental data.

[2] = test system: caspase-3 gene in HCT-116 cells; test: qRT-PCR expression profile of the caspase-3 gene in HCT-116 cells; format: cell-based, human; design: dose or concentration left out as unconfirmed; conditions: 24 h, as compared to the negative control
Description: Normally, apoptosis, or programmed cell death, is considered as a safeguard mechanism for managing stress and maintaining tissue homeostasis. It proceeds through a series of well-ordered biochemical cascades of events, which are regulated by a network of proteins. However, due to genetic and epigenetic mutations, deregulation of these proteins occurs, which results in evasion of apoptosis. This oncogenic transformation is a hallmark of human cancer, and it contributes to other tumorigenic events, including uncontrolled growth, accumulation of further genetic mutations, tumor angiogenesis and metastasis and chemotherapeutic resistance. Therefore, reinitiating selective cancer cell death is a fundamental goal in anticancer drug development. Research in cancer biology has provided fundamental insights into the apoptotic pathways and their deregulation in colon cancer. Moreover, it has identified the molecular targets for reinitiating selective tumor cell death, including antiapoptotic Bcl-2 family proteins, apoptosis inhibitors and activators of the TRAIL death receptor signaling pathway, as well as other apoptotic markers, such as caspases. Among the caspases, which play critical roles in apoptosis, are the initiators, including caspases-8 or 9, and the effectors, including caspase-3 and caspase-7. […] Thus, the real-time quantitative PCR analyses of caspase-3-gene levels following treatment with compounds 4d and 4K at a concentration […] for 24 h, were performed to investigate their potential as proapoptotic agents. […]
Total RNA was extracted from each cell culture flask using the RNeasy extraction kit (RNeasy micro kit, cat. no. 74004). […] The amount of extracted RNA was quantified by estimating the absorbance at 260 nm. The purity of the RNA was checked by measuring the ratio of the absorbance at 260 and 280 nm, where a ratio ranging from 1.8 to 2.0 was taken to be pure. […]
as §1

[3] = target: T1, CDK2/CyclinA2 enzyme (Homo sapiens, UniProt P24941); test: In vitro CDK2 inhibitory assay (Kinase-Glo); format: biochemical
T1 construct: purchased BPS Biosciences, San Diego, CA, USA 79599
Protocol: To further substantiate the promising results of the docking analyses of pyrans 4d and 4K in the ATP active site of CDK2, their in vitro potencies to inhibit the enzyme activity were evaluated over a concentration range of 0.01−10 µM.
CDK-2 inhibition activity of the studied compounds 4d and 4k was evaluated using a commercial CDK2 […] (cat. no.: 79599; BPS Biosciences, San Diego, CA, USA) following the manufacturer’s instructions. Briefly, different concentrations of each compound or the positive control BMS-265246 (0.01, 0. 1, 1 or 10 µM) were incubated with 20 µL of diluted CDK2/CyclinA2 enzyme at 30 °C for 45 min. Following the addition of 50 µL Kinase-Glo® Reagent to each well, the plate was incubated at room temperature for 15 min. Then, the luminescence signal was measured using the microplate reader. The CDK2 inhibitory activity was expressed as inhibition percentage, which was determined by comparison with a control experiment for comparative purposes. IC50 values were deduced from the curves. All measurements were performed in triplicate.

[4] = test system: CDK2 protein in HCT-116 cells; test: Quantitative determination of CDK2 concentration in HCT-116 cell lysates (Human CDK2 ELISA Kit); format: cell-based; conditions: negative control 7.466 ng/mL
Protocol: First, the commercial Human CDK2 ELISA Kit was used to estimate concentrations of the protein in the lysate of HCT-116 cells treated with 4d and 4k. The results were compared with the positive (cells treated with the reference CDK inhibitor, BMS-265246) and negative control experiments.
The in vitro quantitative measurement of concentration of CDK2 in lysates of HCT-116 cells was carried out using a commercial Human CDK2 ELISA Kit (cat. no.: LS-F22176; LifeSpan Biosciences Inc., Seattle, WA, USA) in the presence or absence of the studied compounds (4d and 4k), following the manufacturer’s instructions. Briefly, standards, blanks or samples were first incubated in the corresponding wells for 90 min at 37 °C. Then, biotinylated detection antibody was added to each well and the plate was incubated for 1 h at 37 °C followed by the addition of an Avidin–Horseradish Peroxidase (HRP) conjugate which binds to the biotin. After incubation of the mixture for 30 min at 37 °C, unbound Avidin–HRP conjugate was washed away and a TMB substrate was then added which reacts with the HRP enzyme, resulting in color development. After that, the reaction was stopped using a sulfuric acid stop solution to terminate the color-development reaction and the optical density of each well was measured using a microplate reader at 450 nm. BMS-265246 was used as the standard drug for inhibition of CDK2. All measurements were performed in triplicate.

decrease of CDK2 activity ([3]; at 10 µM)	pIC50 ([3]; deduced from curves over 0.01-10 µM, read-out: IC50 against CDK2)	Compound	CDK2 transcript level, fold [1]	caspase-3 gene transcription level, fold increase [2]	concentration of CDK2 in lysate of treated HCT-116 cells [4]
–	–	O=c1[nH]cc(F)c(=O)[nH]1 [5-FU, 5-fluorouracil, reference compound]	0.29 fold	7.31 fold	–
92.3%	7.44	CCCCOc1c(C(=O)c2c(F)cc(C)cc2F)c[nH]c2nncc1-2 [BMS-265246, reference compound]	–	–	2.229 ng/mL
